Assay results reported in patent EP0200024B1, “3-Cyano-pyridines, process for their preparation and their pharmaceutical use” (ARZNEIMITTELWERK DRESDEN GmbH, priority 1985, dated 1986).
pIC50: −log10 of the molar value.

How the values were obtained:
[1] = test system: Isolierter, spontanaktiver Vorhof des Meerschweinchens; assay: Isolated, spontaneously active atrium (inotropy and frequency); set-up: species or system Meerschweinchen; conditions: for EC30: Tyrode solution according to A.A. Alousi et al., 32 °C, read-out: 30%ige Steigerung der Inotropie bei Konzentrationen von; for chronotrope Wirkung / positiv inotrope Wirkung: result in words
Protocol: Für die Versuche wurden männliche Meerschweinchen mit einer Körpermasse von 400-500 g verwendet. Am isolierten, spontanaktiven Vorhof erfolgte nach einer 60 Min. währenden Adaptationszeit der Organpräparate in 32 °C temperierter carbogen-durchperlter Tyrodelösung die Untersuchung der Beeinflussung von Inotropie und Frequenz unter Einwirkung der 3-Cyan-2-(heteroalkyl-1-hetero)-pyridine der Formel I. Eine Reihe von Verbindungen zeigte eine starke und dosisabhängige positiv inotrope Wirkung. Bei Verwendung einer Tyrodelösung nach A.A. Alousi et al. [Circ. Res. 45, 666 (1979)] zeigen beispielsweise die Verbindungen von Beispiel 1.2, 1.7, 1.27, 3.3, 3.4, 3.5, 4.1 bzw. 4.3 eine 30%ige Steigerung der Inotropie bei Konzentrationen von 5,6 · 10⁻⁵, 5,4 · 10⁻⁶, 5,0 · 10⁻⁵, 5,8 · 10⁻⁵, 9,1 · 10⁻⁵, 1,6 · 10⁻⁴, 3,5 · 10⁻⁵ und 5,4 · 10⁻⁵ mol/l. Die Verbindung von Beispiel 1.27 zeigt bei einer Konzentration von 5 · 10⁻⁵ mol/l eine Abnahme der Frequenz um 15 %. Die Verbindung von Beispiel 1.8 zeigt bei Verwendung einer Tyrodelösung mit der Zusammensetzung (mmol/l): NaCl 136,9; KCl 2,7; CaCl₂ 1,8; MgCl₂ 1,0; NaHCO₃ 11,9; NaH₂PO₄ 0,4; Glucose 16,5 eine 30%ige Steigerung der Inotropie bei einer Konzentration von 1,2 · 10⁻⁴ mol/l.

[2] = test system: Samenleiter von Meerschweinchen; assay: Noradrenaline antagonism in vitro (noradrenaline contraction of isolated vas deferens); conditions: for pIC50: Cavia porcellus, compound given 1 min before submaximal noradrenaline concentration, read-out: ED₅₀-Werte (Hemmung der Noradrenalinkontraktion); for Hemmung der Noradrenalinkontraktion: result in words
Protocol: Die in Warmblüterphosphattyrode präparierten Samenleiter von Meerschweinchen (ca. 400 g Körpermasse) wurden 60 Min. im Organbad adaptiert. Anschließend wurden die Kontraktionen unter Gabe von Noradrenalin isotonisch registriert. Die 3-Cyan-2-(heteroalkyl-1-hetero)-pyridine der Formel I wurden 1 Min vor den jeweils submaximal reagierenden Noradrenalinkonzentrationen in das Organbad appliziert. […] Für die Verbindungen von Beispiel 1.2, 1.6, 1.7 und 1.8 ergaben sich beispielsweise ED₅₀-Werte von 2,2 · 10⁻⁵, 1,6 · 10⁻⁴, 2,5 · 10⁻⁴ sowie 1,3 · 10⁻⁴ mol/l.

Meerschweinchen = assay: Inhalative histamine bronchospasm, oral administration; assay type: in vivo; conditions: Cavia porcellus, 1 h, 60 min before inhaled 0,1 % histamine, 10 animals per dose, read-out: ED₅₀-Werte (Schutz vor Histamin-Bronchialkonstriktionen)
Protocol: Eine, in einem Ultraschallverdampfer vernebelte 0,1 %ige Histaminlösung induziert an männlichen Meerschweinchen (Körpermasse 200-300 g) innerhalb von 2 bis 3 Min. typische Bronchialkonstriktionen. Durch orale Verabreichung geeigneter Dosen der 3-Cyan-2-(heteroalkyl-1-hetero)-pyridine der Formel I 60 Min. vor der inhalativen Histamingabe wurden die Tiere innerhalb einer festgelegten Expositionszeit vor den durch Histamin verursachten Bronchialkonstriktionen geschützt. Für die Derivate von Beispiel 1.2, 1.6, 1.7 und 1.8 ergeben sich z.B. aus je 10 Tieren pro Dosis ED₅₀-Werte von 4,3 · 10⁻⁴, 6,0 · 10⁻⁴, 3,3 · 10⁻⁴ sowie 2,5 · 10⁻⁴ mol/kg, was auf deutliche bronchodilatatorische bzw. antiallergische Wirkungen hinweist.

[3] = test system: Narkotisiertes Minischwein; assay: Anaesthetised minipig i.v. (dp/dtmax, blood pressure); assay type: in vivo, Zwergschweinen (Mini-LEWE); conditions: result in words
Text: Die Untersuchungen wurden an 6 männlichen Zwergschweinen (Mini-LEWE) mit einem durchschnittlichen Gewicht von 50 kg durchgeführt. Die Tiere wurden unter N₂O-O₂-Beatmung (3:1) und Muskelrelaxation (d-Tubocurarin) thorakotomiert. Der Blutdruck wurde in der Aorta ascendens mittels Transducer und der Druck im linken Ventrikel (LVP) mit einem Tipmanometer gemessen. Aus dem LVP-Signal wurde über ein Differenzierglied dp/dtmax ermittelt. Aus dem EKG wurde mit einem Kardiotachometer die Herzfrequenz zusammen mit anderen Signalen registriert. Das Herz-Zeit-Volumen wurde mit einem elektromagnetischen Flowmeter gemessen und über einen Integrator das Herz-Schlag-Volumen ermittelt. Einige der 3-Cyan-2-(heteroalkyl-1-hetero)-pyridine der Formel I zeigen an diesem Modell eine starke und dosisabhängige Erhöhung der Kontraktilität des Herzens (dp/dtmax) sowie teilweise eine signifikante Senkung des totalen peripheren Gesamtwiderstandes. So wurden beispielsweise unter den Verbindungen von Beispiel 1.2 und 1.7 bei einer Dosis von 2,0 · 10⁻⁶ bzw. 5,5 · 10⁻⁷ eine 50%ige Steigerung des Kontraktilitätsparameters dp/dtmax sowie bei einer Dosis von 1,1 · 10⁻⁶ bzw. 1,7 · 10⁻⁶ eine 10%ige Senkung des diastolischen Blutdruckes, der neben der beobachteten Steigerung des Herzzeitvolumens eine wesentliche Größe zur Bestimmung des totalen peripheren Gefäßwiderstandes darstellt, gefunden.

Langendorff-Herz = assay: Langendorff heart in vitro (isolated perfused, freely beating heart; inotropy, chronotropy, coronary flow); set-up: species or system Meerschweinchen; conditions: for EC30: molarity of solution, 0,1 ml bolus into aortic stump, giving 30 % increase of inotropy, read-out: Erhöhung der Inotropie um 30 % bei Applikation von je 0,1 ml einer ... molaren Lösung; for EC100: molarity of solution, 0,1 ml bolus, giving 100 % increase of coronary flow, read-out: Erhöhung des Koronardurchflusses um 100 % bei Applikation von je 0,1 ml einer ... molaren Lösung; for positiv chronotrope Wirkung / positiv inotrope Wirkung: result in words
Protocol: Für die Versuche wurden männliche Meerschweinchen mit einer, Körpermasse von 300-350 g eingesetzt. An isolierten, mit carbogenbegaster Tyrodelösung von 37 °C durchströmten, frei schlagenden Herzen, wurden unter konstantem Druck die Kontraktionskraft (Inotropie), die Frequenz (Chronotropie) und der Koronardurchfluß unter dem Einfluß der 3-Cyan-2-(heteroalkyl-1-hetero)-5-(pyrid-4-yl)-pyridine der Formel I untersucht. Dazu wurden jeweils 0,1 ml der entsprechend molaren Substanzlösungen als Bolus direkt in den Aortenstumpf appliziert. Die 3-Cyan-2-(heteraalkyl-1-hetera)-5-(pyrid-4-yl)-pyridine zeigten eine teilweise starke und konzentrationsabhängige positiv inotrope und koronardilatatorische Wirkung. Die positiv chronotrope Wirkung war deutlich geringer, ausgeprägt. Beispielsweise zeigen die Verbindungen der Beispiele 1.2, 1.6, 1.7 und 1.8 eine Erhöhung der Inotropie um 30 % bei Applikation von je 0,1 ml einer 3,0 · 10⁻³, 2,2 · 10⁻², 2,0 · 10⁻⁴ bzw. 1,0 · 10⁻³ molaren Lösung und eine Erhöhung des Koronardurchflusses um 100 % bei Applikation von je 0,1 ml einer 6,0 · 10⁻³, 6,5 · 10⁻², 1,1 · 10⁻² bzw. 1,3 · 10⁻² molaren Lösung. Die Verbindungen der Beispiele 2.2, 2.3 und 2.4 weisen bei Applikation von je 0,1 ml einer 10⁻² molaren Stammlösung in die Aorta eine Erhöhung der Inotropie um 51 %, 38 % und 31 % sowie eine Erhöhung des Koronardurchflusses um 59 %, 99 % bzw. 88 % auf.

| Structure (SMILES) | EC30 [1] | chronotrope Wirkung [1] | positiv inotrope Wirkung [1] | pIC50 [2] | Hemmung der Noradrenalinkontraktion [2] | ED50 (Meerschweinchen) | Senkung des diastolischen Blutdruckes [3] | Steigerung des Kontraktilitätsparameters dp/dtmax [3] | EC30 (Langendorff-Herz) | EC100 (Langendorff-Herz) | positiv chronotrope Wirkung (Langendorff-Herz) | positiv inotrope Wirkung (Langendorff-Herz) |
| --- | --- | --- | --- | --- | --- | --- | --- | --- | --- | --- | --- | --- |
| N#Cc1cc(-c2ccncc2)cnc1NCCO [Beispiel 1.2, 3-Cyan-2-(2-hydroxy-ethylamino)-5-(pyrid-4-yl)-pyridin] | 56 µM | relative geringer positiv chronotroper Aktivität | ausgeprägte und dosisabhängige positiv inotrope Wirkung | 4.66 | konzentrationsabhängige Hemmung | 430 µmol/kg | dosisabhängige signifikante Senkung | beträchtliche dosisabhängige Steigerung | 3000 µM | 6000 µM | relative geringer positiv chronotroper Aktivität | ausgeprägte und dosisabhängige positiv inotrope Wirkung |
| N#Cc1cc(-c2ccncc2)cnc1N1CCOCC1 [Beispiel 1.7, 3-Cyan-2-morpholino-5-(pyrid-4-yl)-pyridin] | 5.4 µM | relative geringer positiv chronotroper Aktivität | ausgeprägte und dosisabhängige positiv inotrope Wirkung | 3.60 | konzentrationsabhängige Hemmung | 330 µmol/kg | dosisabhängige signifikante Senkung | beträchtliche dosisabhängige Steigerung | 200 µM | 11000 µM | relative geringer positiv chronotroper Aktivität | ausgeprägte und dosisabhängige positiv inotrope Wirkung |
